Source: patent publication US5739121A, “Fluorocyclosaccharide drug delivery systems” (University of Alberta, priority 1993, dated 1998)

How the values were obtained:
[1] = Biodistribution of 6-F3 βCD at 15 minutes after a single intravenous dose; format: in vivo, BALB/C mouse; conditions: mouse
Description: (§1) A Bruker AM-300 (7.05 Tesla, 282.39 Mhz) and a Bruker CXP-100 (2.35 Telsa, 94.26 Mhz, 40 cm. bore) spectrometer were used for ^19 F NMR spectroscopy. The CXP-100 spectrometer was used with a 20 mm diameter, three turn horizontal coil. The biodistribution and excretion study of Example 4 was performed on the CXP-100 spectrometer, while ^1 H, ^13 C and ^19 F NMR spectra for synthesized compounds, blood, urine and extracts of liver were obtained using the Bruker AM-300 instrument. The ^19 F NMR were acquired over a spectral width of 70.0 ppm (between +60.0 and -10.0 ppm). The number of scans varied from 2.5 k to 45 k scans depending on the size of biological samples. An aqueous solution of chromium acetate (90 μL; 0.1M) was used as a relaxation agent to enhance the S/N ratio. Exponential line broadening of 0-40 Hz was imposed on the data prior to Fourier transformation. An aqueous solution of potassium fluoride (5 μL; 0.2M) was used as an internal standard during acquisition of ^19 F NMR spectra while ^1 H and ^13 C NMR spectra were locked on deuterium. D2 O was used as a solvent for samples of blood, urine and liver extract) which appeared at δ4.68 ppm (^1 H NMR spectra) with respect to tetramethylsilane. The resolution limits for ^1 H, ^13 C and ^19 F were observed between 0.5-1.1, 2.0-3.0 and 1.3-20.0 Hz, respectively. The chemical shifts are reported in δ ppm.
6-F3 βCD (90 mg/ml in water) was administered to a BALB/C mouse by intravenous injection through the tail vein, at a dose of 13.5 mg 6-F3 βCD per mouse. The mouse was placed in a beaker layered with filter paper to absorb the urine excreted during the experiment. 15 minutes after administration of the drug complex, blood was collected by cardiac puncture, the mouse was sacrificed by euthanasia in dry ice and the desired organs were collected by dissection. All samples were immediately frozen and held frozen until NMR studies.

[2] = Metabolic degradation after intravenous injection of 6-F3 βCD; format: in vivo, BALB/C mouse; conditions: mouse, i.v. injection, over the first fifteen minutes; 15 min
Description: as §1, with “ppm. […]” for “ppm.”

- % Dose in tail ([1]; single i.v. 13.5 mg per mouse (tail vein), tail): 2.14 % Dose
- % Dose in blood ([1]; single i.v. 13.5 mg per mouse, blood): 62.59 % Dose
- % Dose in intestine ([1]; single i.v. 13.5 mg per mouse, intestine): 0.72 % Dose
- % Dose in kidney ([1]; single i.v. 13.5 mg per mouse, kidney): 1.87 % Dose
- % Dose in liver ([1]; single i.v. 13.5 mg per mouse, liver): 4.09 % Dose
- % Dose in urine ([1]; single i.v. 13.5 mg per mouse, urine): 40.96 % Dose
- metabolic degradation, share of the administered dose [2]: less than 5%
Structure (SMILES): O[C@@H]1[C@@H](O)[C@H]2O[C@H]3[C@H](O)[C@@H](O)[C@@H](O[C@H]4[C@H](O)[C@@H](O)[C@@H](O[C@H]5[C@H](O)[C@@H](O)[C@@H](O[C@H]6[C@H](O)[C@@H](O)[C@@H](O[C@H]7[C@H](O)[C@@H](O)[C@@H](O[C@H]8[C@H](O)[C@@H](O)[C@@H](O[C@@H]1[C@@H](COCC(F)(F)F)O2)O[C@@H]8COCC(F)(F)F)O[C@@H]7COCC(F)(F)F)O[C@@H]6COCC(F)(F)F)O[C@@H]5COCC(F)(F)F)O[C@@H]4COCC(F)(F)F)O[C@@H]3COCC(F)(F)F [6-F3 βCD, Heptakis [6.0-(2,2,2-trifluoroethyl)]-β-cyclodextrin]
